US20040102423A1, “Spironolactone and angiotensin II antagonist combination therapy for treatment of congestive heart failure” (G.D. Searle & Co., priority 1995, published 2004)
pIC50: −log10 of the molar value.

How the values were obtained:
[1] = target: angiotensin II AT1 receptor; assay: Assay A: Angiotensin II binding activity, rat uterine membrane preparation, 125I-AII displacement
rabbit aortic rings = assay: Assay B: In vitro vascular smooth muscle response for AII (antagonist activity, pA2); type: cell-based; conditions: Oryctolagus cuniculus, two values in a cell = two determinations
How it was run: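 Endothelium-denuded thoracic aortic rings from male New Zealand white rabbits, in oxygenated Krebs at 37° C. under ~1 g tension, gave isometric AII contraction curves (3×10^−10 to 1×10^−5 M).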

pressor response to AII = assay: Assay C: In vivo intragastric pressor assay response for AII antagonists; design: species or system Sprague-Dawley rats; conditions: in vivo pressor response, 3 mg/kg intragastrically; for inhibition in vivo at 3 mg/kg: Rattus norvegicus, po

For `CCCCn1nc(-c2ccccc2Cl)nc1Cc1ccc(-c2ccccc2-c2nnn[nH]2)nc1` [Compound 169], the pIC50 [1] was 6.82, the Kb (rabbit aortic rings) was 16.6 nM and the inhibition in vivo at 3 mg/kg (pressor response to AII) was 15%. The “Assay C Duration” value (pressor response to AII) was 180 min.

Compound `CCCn1nc(C(C)(F)F)nc1Cc1ccc(-c2ccccc2-c2nnn[nH]2)nc1` [Compound 176] has a pIC50 [1] of 8.01, a Kb (rabbit aortic rings) of 20.4 nM and an inhibition in vivo at 3 mg/kg (pressor response to AII) of 10%. For the same compound, the “Assay C Duration” value (pressor response to AII) was 150 min.

For `CCCn1nc(C(OC)OC)nc1Cc1ccc(-c2ccccc2-c2nnn[nH]2)nc1` [Compound 185], the pIC50 [1] was 8.19, the Kb (rabbit aortic rings) was 1.51 nM and the inhibition in vivo at 3 mg/kg (pressor response to AII) was 50%. The “Assay C Duration” value (pressor response to AII) was >180 min.

`CCCCn1nc(C=O)nc1Cc1ccc(-c2ccccc2-c2nnn[nH]2)nc1` [Compound 190] gave a pIC50 [1] of 8.00, a Kb (rabbit aortic rings) of 13.5 nM and an inhibition in vivo at 3 mg/kg (pressor response to AII) of 10%. The “Assay C Duration” value (pressor response to AII) was 180 min.

`CCCCn1nc(C2OCCCO2)nc1Cc1ccc(-c2ccccc2-c2nnn[nH]2)nc1` [Compound 191] was tested, and the pIC50 [1] was 7.09, the Kb (rabbit aortic rings) was 17.8 nM and the inhibition in vivo at 3 mg/kg (pressor response to AII) was 10%. For the same compound, the “Assay C Duration” value (pressor response to AII) was 180 min.

In the case of `CCCn1cc(CC(C)C)n(Cc2ccc(-c3ccccc3-c3nnn[nH]3)nc2)c1=O` [Compound 198], the pIC50 [1] was 8.12, the Kb (rabbit aortic rings) was 1.74 nM and the inhibition in vivo at 3 mg/kg (pressor response to AII) was 35%. The “Assay C Duration” value (pressor response to AII) was >180 min.

In the case of `CCCCn1cc(CC(C)C)n(Cc2ccc(-c3ccccc3-c3nnn[nH]3)nc2)c1=O` [Compound 199], the pIC50 [1] was 8.00, the Kb (rabbit aortic rings) was 1.62 nM and the inhibition in vivo at 3 mg/kg (pressor response to AII) was 60%. The “Assay C Duration” value (pressor response to AII) was >180 min.

Compound `CCCCCc1cn(CCCC)c(=O)n1Cc1ccc(-c2ccccc2-c2nnn[nH]2)nc1` [Compound 201] has a pIC50 [1] of 7.77, a Kb (rabbit aortic rings) of 1.66 nM and an inhibition in vivo at 3 mg/kg (pressor response to AII) of 10%. For the same compound, the “Assay C Duration” value (pressor response to AII) was 180 min.

For `CCCCn1cc(C2CCCCC2)n(Cc2ccc(-c3ccccc3-c3nnn[nH]3)nc2)c1=O` [Compound 202], the pIC50 [1] was 7.92, the Kb (rabbit aortic rings) was 1.62 nM and the inhibition in vivo at 3 mg/kg (pressor response to AII) was 65%. For the same compound, the “Assay C Duration” value (pressor response to AII) was >180 min.

Work on `CCCCn1cc(C2CCCC2)n(Cc2ccc(-c3ccccc3-c3nnn[nH]3)nc2)c1=O` [Compound 203] yielded a pIC50 [1] of 8.04, a Kb (rabbit aortic rings) of 3.72 nM and an inhibition in vivo at 3 mg/kg (pressor response to AII) of 50%. The “Assay C Duration” value (pressor response to AII) was >180 min.

For `CCCCc1cn(C)c(=O)n1Cc1ccc(-c2ccccc2-c2nnn[nH]2)nc1` [Compound 205], the pIC50 [1] was 7.70, the Kb (rabbit aortic rings) was 0.724 nM and the inhibition in vivo at 3 mg/kg (pressor response to AII) was 40%. For the same compound, the “Assay C Duration” value (pressor response to AII) was >180 min.

Work on `CCCCc1cn(CC)c(=O)n1Cc1ccc(-c2ccccc2-c2nnn[nH]2)nc1` [Compound 206] yielded a pIC50 [1] of 8.27, a Kb (rabbit aortic rings) of 1.78 nM and an inhibition in vivo at 3 mg/kg (pressor response to AII) of 30%. The “Assay C Duration” value (pressor response to AII) was >180 min.

Compound `CCCCc1cn(CCC(C)C)c(=O)n1Cc1ccc(-c2ccccc2-c2nnn[nH]2)nc1` [Compound 209] has a pIC50 [1] of 8.30, a Kb (rabbit aortic rings) of 0.389 nM and an inhibition in vivo at 3 mg/kg (pressor response to AII) of 25%. For the same compound, the “Assay C Duration” value (pressor response to AII) was >180 min.

In the case of `CCCCCn1cc(CCCC)n(Cc2ccc(-c3ccccc3-c3nnn[nH]3)nc2)c1=O` [Compound 210], the pIC50 [1] was 8.44, the Kb (rabbit aortic rings) was 4.37 nM and the inhibition in vivo at 3 mg/kg (pressor response to AII) was 15%. For the same compound, the “Assay C Duration” value (pressor response to AII) was 180 min.

Work on `CCCCc1cn(C(C)C)c(=O)n1Cc1ccc(-c2ccccc2-c2nnn[nH]2)nc1` [Compound 211] yielded a pIC50 [1] of 7.74, a Kb (rabbit aortic rings) of 1.82 nM and an inhibition in vivo at 3 mg/kg (pressor response to AII) of 35%. For the same compound, the “Assay C Duration” value (pressor response to AII) was >180 min.

For `CCCCc1cn(C2CCCCC2)c(=O)n1Cc1ccc(-c2ccccc2-c2nnn[nH]2)nc1` [Compound 216], the pIC50 [1] was 8.27, the Kb (rabbit aortic rings) was 1.58 nM and the inhibition in vivo at 3 mg/kg (pressor response to AII) was 50%. The “Assay C Duration” value (pressor response to AII) was >180 min.

With `CCCCc1cn(-c2c(Cl)cccc2Cl)c(=O)n1Cc1ccc(-c2ccccc2-c2nnn[nH]2)nc1` [Compound 232] the pIC50 [1] was 8.36, the Kb (rabbit aortic rings) was 2.57 nM and the inhibition in vivo at 3 mg/kg (pressor response to AII) was 70%. The “Assay C Duration” value (pressor response to AII) was >180 min.

`CCCCc1cn(-c2ccccc2CC)c(=O)n1Cc1ccc(-c2ccccc2-c2nnn[nH]2)nc1` [Compound 239] showed a pIC50 [1] of 8.17, a Kb (rabbit aortic rings) of 13.2 nM and an inhibition in vivo at 3 mg/kg (pressor response to AII) of 20%. The “Assay C Duration” value (pressor response to AII) was >180 min.
